These results are taken from patent US20230330053A1, “METHOD FOR TREATING INFECTIONS” (priority 2020, published 2023).

“Also recorded” adds a separate entry of the source.

In assay [1] the test system is SARS-CoV-2 (USA-WA1/2020 strain). Nature of the assay: Direct injection into SARS-CoV-2 viral suspension, plaque assay on Vero E6 cells. In kind it is cell-based. Conditions: for Effect on viral burden at the lower volumes: formula 2 and 5 μls, or corresponding propionic acid 1.4 and 3.9 μls, isoamyl hexanoates 0.6 and 1.1 μls.
A further assay relates to SARS-CoV-2. Put plainly: Sx direct injection into SARS-CoV-2 suspension in MEM, Vero E6 plaque assay. The assay is classed as cell-based.
Assay [2] has as its target receptor binding domain (RBD) of the SARS-CoV-2 spike protein to ACE2 (Severe acute respiratory syndrome coronavirus 2, UniProt P0DTC2). Conditions: cited from earlier work.

In the case of isoamyl hexanoates, the “Suppression of SARS-CoV-2 by the component alone” value in assay [1] (37° C., all treatment arms) is “substantially less effective”. The “Effect on viral burden at the lower volumes” value in assay [1] is “minimal reduction of viral burden”. In addition, in the assay on SARS-CoV-2 (1.1 μL alone, at about 100 min), the “Reduction in activity of the virus” value was ~1 log. For the same compound, in the assay on SARS-CoV-2 (esters alone), the “Virus activity after 300 min relative to control” value is “about equaled that of the control; also recorded: approximately equaled that of the control”. For the same compound, the “General reduction in virus activity within about 30 min” value with SARS-CoV-2 (esters alone, over the range of concentrations tested) is reported as ~1 log. The “Reduction in activity over the course of 300 minutes” value in the assay on SARS-CoV-2 (highest concentration of 4.6 μL alone) was 1 order of magnitude.
As to `CCC(=O)O` [propionic acid], the “Decline in viral burden after 360 mins post-addition” value in assay [1] (37° C., 1.4 μls alone) stood at 0.29 log10 PFU/ml. For the same compound, in assay [1] (37° C., 3.9 μls alone), the “Decline in viral burden after 360 mins post-addition” value came to 0.98 log10 PFU/ml. For the same compound, the “Effect on viral burden at the lower volumes” value in assay [1] is “minimal reduction of viral burden”. For the same compound, in the assay on SARS-CoV-2 (acid alone), the “Volume necessary for a relative immediate inactivation of the virus” value is on record as “at least 15.4 μL” and the “Volume necessary to get any appreciable activity” value is “up to 7.7 μL”.
As to GluGluLeuGlu, in assay [2], the “Reduction of activity on adding peptide to the virus” value is given as 34%.
